How the values were obtained:
[1] = test system: ZlucA cell line (genotype 1b replicon selected with 10 nM compound 52, D168V); experiment: Extent of resistance after selection, luciferase assay, ZlucA; assay type: cell-based, HCV; details: selecting conc. 10 nM, EC50 resistant / EC50 wild-type
Procedure: Replicon cells (genotype 1a or 1b) were treated with various concentrations of compound 52 in the presence of G418. Treatment-emergent genotypic changes were identified by population sequencing of NS3 (both protease and helicase regions). The activity of compound 52 and other compounds was evaluated by NS5A western blot after selection or luciferase assay during and after selection.
Eight drug-resistance replicon cell lines were created by long-term culture of genotype 1b replicon cells with 10 or 25 nM of compound 52. NS3 (AAs 1-631) was sequenced at each passage.

[2] = test system: replicon bearing NS5B Mutation M414T
Procedure: (§1) The activity of compound 52 was evaluated against replicons bearing single protease inhibitor-resistance mutations as compared to its activity against the wild-type replicon. Mutations were introduced into a genotype 1b luciferase-replicon by site-directed mutagenesis. Compound activity was measured in cells transiently transfected with in vitro transcribed wild-type or mutant luciferase-replicon RNA by luciferase assay after 4-day treatment. Replication capacity was determined in untreated transfected cells by comparing the luciferase activity at 4 hrs and 4 days post-transfection.
(§2) The activity of compound 52 was also tested against replicons bearing a single polymerase inhibitor-resistance mutation. Each mutation confers resistance to a known polymerase inhibitor as reported in the literature.

[3] = test system: replicon bearing NS5B Mutation C316Y
Procedure: as §1, §2

[4] = test system: replicon bearing NS5B Mutation Y448H
Procedure: as §1, §2

[5] = test system: replicon bearing NS5B Mutation C445Y
Procedure: as §1, §2

[6] = test system: replicon bearing NS5B Mutation C445F
Procedure: as §1, §2

[7] = test system: replicon bearing NS5B Mutation M423T
Procedure: as §1, §2

[8] = test system: replicon bearing NS5B Mutation S282T
Procedure: as §1, §2

[9] = test system: genotype 1b luciferase-replicon NS3 T54A
Procedure: as §1

[10] = test system: genotype 1b luciferase-replicon NS3 R155Q
Procedure: as §1

[11] = test system: genotype 1b luciferase-replicon NS3 R155K
Procedure: as §1

[12] = test system: genotype 1b luciferase-replicon NS3 D168E
Procedure: as §1

[13] = test system: genotype 1b luciferase-replicon NS3 D168V
Procedure: as §1

[14] = test system: genotype 1b luciferase-replicon NS3 Q80R
Procedure: as §1

[15] = test system: genotype 1b luciferase-replicon NS3 A156T
Procedure: as §1

[16] = test system: genotype 1b luciferase-replicon NS3 D168Y
Procedure: as §1

[17] = test system: genotype 1b luciferase-replicon NS3 D168A
Procedure: as §1

[18] = test system: genotype 1b luciferase-replicon NS3 A156S
Procedure: as §1

[19] = target: T1, human CYP450 2C9 (Homo sapiens, UniProt P11712); experiment: CYP450 inhibition assay, 2C9; assay type: in vitro ADME
T1 construct: purchased BD Bioscience
Procedure: (§3) Compound 52 was incubated with human CYP450 cDNA-expressed isoenzymes according to the protocol (BD Bioscience). For CYP2C9, a luminogenic substrate was used with the P450-Glo™ kit. In addition, the effect of the compound on CYP2C9-mediated diclofenac metabolism was measured by LC-UV. The potential inhibitory effect of the compound on human UGT1A1 was examined using human liver microsomes and bilirubin as substrate. The metabolites (mono- and di-glucuronidated bilirubin) were measured by LC-UV.

[20] = clinical; details: human, in vivo; for AUC(0-inf): AUC0-∞
[21] = test system: S. typhimurium and E. coli; experiment: Bacterial mutation test; assay type: cell-based; details: up to 5,000 μg/plate, with and without S9
Procedure: The potential for compound 52 to induce mutations in a bacterial system (S. typhimurium and E. coli—at concentrations up to 5,000 μg/plate), to induce chromosomal aberrations in cultures of human peripheral blood lymphocytes (at concentrations up to 84 μg/mL), and to induce clastogenic and/or aneugenic activity in CD-1 mice (at oral doses up to 2,000 mg/kg) was evaluated. The two in vitro studies were performed with and without the addition of a mammalian metabolic activation system (rat liver S9 subcellular fraction).

[22] = Cytotoxicity in parallel, colorimetric proliferation assay, 1b replicon cells; assay type: cell-based; details: human, replicon cells (genotype 1b)
[23] = target: T2, human UGT1A1 (Homo sapiens, UniProt P22309); experiment: UGT1A1 inhibition assay; assay type: in vitro ADME; details: human liver microsomes, bilirubin as substrate
T2 construct: examined using human liver microsomes and bilirubin as substrate; from tissue; host or cells: human liver microsomes
Procedure: as §3

[24] = target: NS3-4A (Con1) (Hepatitis C virus genotype 1b, UniProt Q9WMX2); experiment: Binding kinetics by surface plasmon resonance; parameters: species or system HCV
Procedure: The binding kinetics of compound 52 to NS3-4A (Con1) was also determined using surface plasmon resonance.

[25] = 50 mg, single dose 50 mg, human volunteers
[26] = 100 mg, single dose 100 mg, human volunteers
[27] = 200 mg, single dose 200 mg, HCV patients, N = 2
[28] = 200 mg, single dose 200 mg, human volunteers
[29] = 400 mg, single dose 400 mg Fasted, human volunteers
[30] = 400 mg, single dose 400 mg, human volunteers

COc1ccc2c(O[C@H]3CCN4C(=O)N(C)CCCC/C=C\[C@@H]5C[C@@]5(C(=O)NS(=O)(=O)C5(C)CC5)NC(=O)[C@@H]4C3)cc(-c3nc(C(F)(F)F)cs3)nc2c1C [Compound 52, 1-methyl-cyclopropanesulfonic acid{(Z)-(1S,4R,6S,18S)-18-[7-methoxy-8-methyl-2-(4-trifluoromethyl-thiazol-2-yl)-quinolin-4-yloxy]-13-methyl-2,14-dioxo-3,13,15-triaza-tricyclo[13.4.0.0*4,6*]nonadec-7-ene-4-carbonyl}amide]
Fold-Change [1]: 250 ± 66
Fold-Change [2]: 1.6 ± 0.5
Fold-Change [3]: 1.7 ± 0.6
Fold-Change [4]: 1.7 ± 0.4
Fold-Change [5]: 0.9 ± 0.07
Fold-Change [6]: 0.9 ± 0.07
Fold-Change [7]: 0.9 ± 0.08
Fold-Change [8]: 1.4 ± 0.6
Fold-Change [9]: 1.4 ± 0.2
Fold-Change [10]: 0.6 ± 0.09
Fold-Change [11]: 9.0 ± 1.7
Fold-Change [12]: 41.4 ± 17.8
Fold-Change [13]: 4587 ± 1003
Fold-Change [14]: 5.7 ± 0.9
Fold-Change [15]: 27.1 ± 9.5
Fold-Change [16]: 1107 ± 513
Fold-Change [17]: 575 ± 210
Fold-Change [18]: 0.5 ± 0.1
IC50 [19]: ≥ 10 µM
AUC(0-inf) [20, 25]: 2020 ± 744 ng·h/mL
Cmax [20, 25]: 346 ± 87 ng/mL
half-life ([20]; 50 mg, T1/2, single dose 50 mg, human volunteers): 13 ± 6 h
Tmax [20, 25]: 3 h
AUC(0-inf) [20, 26]: 3540 ± 1010 ng·h/mL
Cmax [20, 26]: 467 ± 72 ng/mL
half-life ([20]; 100 mg, T1/2, single dose 100 mg, human volunteers): 24 ± 7 h
Tmax [20, 26]: 3 h
AUC(0-inf) [20, 27]: 13900 ng·h/mL
AUC(0-inf) [20, 28]: 7240 ± 2930 ng·h/mL
Cmax [20, 27]: 1060 ng/mL
Cmax [20, 28]: 982 ± 463 ng/mL
half-life ([20]; 200 mg, T1/2, single dose 200 mg, HCV patients, N = 2): 32 h
half-life ([20]; 200 mg, T1/2, single dose 200 mg, human volunteers): 26 ± 7 h
Tmax [20, 27]: 3.5 h
Tmax [20, 28]: 3 h
AUC(0-inf) ([20]; 400 mg): 9460 ± 2330 ng·h/mL
AUC(0-inf) [20, 29]: 4190 ± 1590 ng·h/mL
Cmax [20, 29]: 368 ± 89 ng/mL
Cmax [20, 30]: 1120 ± 505 ng/mL
half-life ([20]; 400 mg, T1/2, single dose 400 mg Fasted, human volunteers): 15 ± 8 h
half-life ([20]; 400 mg, T1/2, single dose 400 mg, human volunteers): 25 ± 7 h
Tmax [20, 29]: 3 h
Tmax [20, 30]: 3 h
genotoxicity, bacterial mutation test [21]: no genotoxicity
CC50 at 5 days [22]: 25.2 ± 5.3 µM
IC50 [23]: ≥ 10 µM
kon ([24]; read-out: association rate): 27000 M⁻¹ s⁻¹
koff ([24]; read-out: dissociation rate): 2.1e-05 s⁻¹
Kd ([24]; read-out: equilibrium constant): 0.0008 µM

Reference: US8993595B2, “Macrocyclic serine protease inhibitors” (priority 2009, dated 2015)
